pIC50: −log10 of the molar value. Read-outs that look alike come from different tables or passages of the source.
Assays:
[1] = test system: HT 29 (Colon adenocarcinoma); assay: In vitro cytotoxicity, microculture tetrazolium (MTT) assay, HT 29; type: cell-based, human; conditions: read-out: IC50
Experimental: (§1) In Vitro Cytotoxicity--Microculture Tetrazolium Assay
(§2) The microculture tetrazolium assay was used to test in vitro cytotoxicity. This assay is described in Plumb, J. A. et al., 1989 Cancer Research 49, 4435-4440, which is herein incorporated by reference. The cytotoxicity of compounds towards tumor cells is measured in vitro using the assay. This assay method is based upon the ability of live, but not dead cells to reduce the yellow water soluble dye 3-(4;5-dimethylthiazol-2-yl)-2,5-diphenyltetrazolium bromide (MTT) to its water insoluble purple formazan product.
(§3) Human Tumor Cell lines, used were:
HT 29 (Colon adenocarcinoma) ATCC catalog #HTB-38.
(§4) The cells were maintained in exponential growth in culture in minimal essential media (MEM) supplemented with non-essential amino acids, and containing 15% (v/v) fetal bovine serum, 5 mM L-glutamine, 1 mM sodium pyruvate, and 0.1 U/ml insulin. All cell lines were grown at 37° C. in an atmosphere of 5% CO2 in air.
(§5) Test compounds: 20 mM in DMSO and diluted to a final concentration of 200 μM in culture medium before use.
(§6) The following is the generic description of the assay method. It should be noted that although the conditions described work well with the cells listed above, the initial plating density and the MTT concentration used should be verified for each new cell line used to test compounds.
(§7) For each assay, doxorubicin is included as an inter-assay standard. This allows us to monitor the behaviour of the assay in general, and in particular, to check that the SKVLB line has maintained its resistant phenotype.
(§8) The plate layout is done in the following manner: The assays are carried out in 96-well (8 well×12 well) microtiter plates. Serial dilutions of the compound are tested along the length of the plate. A 1:3 serial dilution of compound in culture medium covers a concentration range from 100 μM to 1.7 nM. Each concentration of compound is tested in quadruplet, allowing two compounds to be tested per plate. Wells containing no cells (blank) and cells with no test compound (control) are included on each plate.
(§9) Cells are plated out in 100 μl of culture medium in the microtiter plates at a density of around 1,500-4,000 cells per well. The plates are incubated overnight to allow the cells to become adherent after which the test compound is added (100 μl of appropriate dilution per well). The cells are incubated with test compound at 37° C. for 48 h after which the compound is replaced with fresh medium. After a further 48 h incubation at 37° C., 50 μl of MTT solution (2 mg/ml) is added to each well. The plates are incubated in the dark for 4 h at 37° C. after which the medium is removed. The MTT formazan product is extracted from the cells by the addition of 200 μl DMSO followed by 50 μl of Sorensen's buffer. The plates are shaken briefly and the absorbance at 570 nm is read using a Molecular Devices UV max plate reader. Curves are fit to the MTT assay data using a four parameter logistic equation, and the data are normalized to fit a 0% to 100% survival scale.

[2] = test system: MCF-7; assay: In vitro antitumor activity, MCF-7; type: cell-based
Experimental: as §2, §8
(§10) Cells are plated out in 100 μl of culture medium in the microtiter plates at a density of around 1,500-4,000 cells per well. […] The plates are shaken briefly and the absorbance at 570 nm is read using a Molecular Devices UV max plate reader. […]

[3] = test system: Lox (Melanoma); assay: In vitro cytotoxicity, microculture tetrazolium (MTT) assay, Lox; type: cell-based, human; conditions: read-out: IC50
Experimental: as §1, §2, §3
Lox (Melanoma)--Southern Research Institute.
as §4, §5, §6, §7, §8, §9

[4] = test system: MAT-B; assay: In vitro antitumor activity, MAT-B; type: cell-based
Experimental: as §2, §8, §10

[5] = test system: SKVLB (Ovarian; multidrug resistant); assay: In vitro cytotoxicity, microculture tetrazolium (MTT) assay, SKVLB; type: cell-based, human; conditions: for pIC50: SKVLB, multidrug resistant, read-out: IC50; for VLB/OV3: ratio SKVLB / SKOV3
Summary of the method: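 Multidrug-resistant ovarian SKVLB cells exposed 48 h at 37 °C to 1:3 serial dilutions (100 μM–1.7 nM), then 48 h in fresh medium. MTT reduction read at 570 nm after DMSO extraction; four-parameter logistic fit normalized to 0–100% survival.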

[6] = test system: MCF-7/ADR; assay: In vitro antitumor activity, MCF-7/ADR (adriamycin resistant); type: cell-based
Experimental: as §2, §8, §10

[7] = test system: SKOV3 (Ovarian adenocarcinoma); assay: In vitro cytotoxicity, microculture tetrazolium (MTT) assay, SKOV3; type: cell-based, human; conditions: read-out: IC50
Experimental: as §1, §2, §3
SKOV3 (Ovarian adenocarcinoma)--provided by Dr. V. Ling,
as §4, §5, §6, §7, §8, §9

[8] = test system: T47D (Ductal carcinoma of breast); assay: In vitro cytotoxicity, microculture tetrazolium (MTT) assay, T47D; type: cell-based, human; conditions: read-out: IC50
Experimental: as §1, §2, §3
T47D (Ductal carcinoma of breast)--ATCC catalog #HTB-133.
as §4, §5, §6, §7, §8, §9

[9] = test system: MAT-B/ADR; assay: In vitro antitumor activity, MAT-B/ADR; type: cell-based
Experimental: as §2, §8, §10

[10] = literature; cited from earlier work
[11] = Med. Res. Rev. 1981; cited from earlier work
[12] = Med. Res. Rev. 1981; cited from earlier work; remark: listed apart in the source

In the case of CC(=O)[C@H]1CC2=C(C(=O)c3ccccc3C2=O)[C@H](OC2C[C@H](NC(=O)C(F)(F)F)[C@H](O)[C@H](C)O2)O1 (stereo partly drawn) [BCH1146, (1'S,1S,3R)-Methyl (5,10-dioxo-1-(2',3',6'-trideoxy-3'-trifluoroacetamido-4'-hydroxy-L-lyxohexopyranose)-3,4,5,10-tetrahydronaphtho [2,3-C]pyran-3-yl) ketone], the pIC50 ([1]; HT29) was 6.04, the pIC50 [2] was 7.36 and the “potency in breast cancer, MCF-7, against adriamycin” value ([2]; breast cancer) was “less potent than adriamycin”. For the same compound, the pIC50 [3] was 5.42, the pIC50 [4] was 6.34 and the pIC50 [5] was 5.16. The VLB/OV3 [5] was 7.82, the pIC50 ([6]; MCF-7/ADR) was 6.72 and the “effectiveness in the sensitive and adriamycin resistant cell line” value ([6]; MCF-7 sensitive vs adriamycin resistant) was “nearly as effective in the sensitive and adriamycin resistant cell line”. It also gave a pIC50 ([7]; SKOV3) of 6.05, a pIC50 [8] of 5.23 and a pIC50 [9] of 6.25.

With CC(=O)C1CC2=C(C(=O)c3ccccc3C2=O)C(OC2CC(NC(=O)C(F)(F)F)C(O)C(C)O2)O1 (stereo not drawn) [BCH2144] the pIC50 ([1]; HT29) was 5.23, the pIC50 [3] was 5.48 and the pIC50 [5] was 4.79. For the same compound, the VLB/OV3 [5] was 0.75, the pIC50 ([7]; SKOV3) was 4.67 and the pIC50 [8] was 5.14.

COC1OC(C(=O)NCCCn2ccnc2)=CC2=C1C(=O)c1ccccc1C2=O (stereo not drawn) [BCH2157, (3-N-hydrochloroimidazolylpropyl)-1-methoxy-5,10-dioxo-5,10-dihydro-1H-naphtho-[2,3-c]-pyran-3-carboxamide] gave a pIC50 ([1]; Homo sapiens, HT-29, HT29) of 5.91, a pIC50 ([3]; Homo sapiens) of 7.81 and a pIC50 ([5]; Homo sapiens) of 5.47. The VLB/OV3 [5] was 18.13, the pIC50 ([7]; Homo sapiens, SK-OV-3, SKOV3) was 6.73 and the pIC50 ([8]; Homo sapiens) was 6.63.

In the case of CC1O[C@H]2CC(=O)O[C@H]2C2=C1C(=O)c1c(O)c3c(c(O)c1C2=O)[C@H]1C[C@@H](O)[C@]3(O)[C@@H](C)O1 (stereo partly drawn) [Granaticin], the antitumor activity [10] is given as “show antitumor activity”.

For C[C@H]1O[C@@H]2CC(=O)O[C@@H]2C2=C1C(=O)c1c(O)cccc1C2=O [kalafungin], the antifungal activity [11] is listed as “antifungal activity” and the antibacterial activity [12] is listed as “potent antibacterial”.

In the case of C[C@@H]1O[C@@H](CC(=O)O)CC2=C1C(=O)c1c(O)cccc1C2=O [nanaomycin A], the antifungal activity [11] is given as “antifungal activity” and the antibacterial activity [12] is given as “potent antibacterial”.

For COC(=O)C1CC2=C(C(=O)c3c(cc4ccccc4c3O)C2=O)[C@@H](O[C@H]2C[C@H](NC(=O)C(F)(F)F)[C@H](O)[C@H](C)O2)O1 (stereo partly drawn) [pyranoanthraquinone (H)], the antitumor activity [10] is listed as “possess antitumor activity”.

Compound “(1S,2'S,3R) and (1R,2'S,3S)-methyl-(1-[O-prolinol]-3,4,5,12-tetrahydronaphtho-[2,3-C] pyran-3-yl) ketone hydrochloride salt [BCH1658]” has a pIC50 ([1]; HT29) of 6.18, a pIC50 [3] of 6.50 and a pIC50 [5] of 5.83. It also gave a VLB/OV3 [5] of 6.31, a pIC50 ([7]; SKOV3) of 6.63 and a pIC50 [8] of 6.31.

Work on “Methyl-(6-hydroxy-5,10-dioxo-3,4,5,10-tetrahydronaphtho-[2,3-c]-pyran-3-yl)ketone and methyl-(9-hydroxy-5,10-dioxo-3,4,5,10-tetrahydronaphtho-[2,3-c]-pyran-3-yl) ketone [BCH2062]” yielded a pIC50 ([1]; HT29) of 5.94, a pIC50 [3] of 6.45 and a pIC50 [5] of 6.07. The VLB/OV3 [5] was 1.04, the pIC50 ([7]; SKOV3) was 6.09 and the pIC50 [8] was 6.11.

Source: patent US5736523A, “Antineoplastic heteronapthoquinones” (Biochem Pharma Inc., priority 1995, dated 1998)
